Columns and labels:
human recombinant FAAH = target: T1, human recombinant FAAH (Homo sapiens, UniProt O00519); assay: FAAH inhibition enzymatic assay (Arachidonoyl-AMC substrate); format: biochemical; conditions: 30 minute incubation; geometric mean; read-out: FAAH (T = 30 min) IC50
T1 construct: purchased Cayman 10010183
T1 sequence (O00519 1-579): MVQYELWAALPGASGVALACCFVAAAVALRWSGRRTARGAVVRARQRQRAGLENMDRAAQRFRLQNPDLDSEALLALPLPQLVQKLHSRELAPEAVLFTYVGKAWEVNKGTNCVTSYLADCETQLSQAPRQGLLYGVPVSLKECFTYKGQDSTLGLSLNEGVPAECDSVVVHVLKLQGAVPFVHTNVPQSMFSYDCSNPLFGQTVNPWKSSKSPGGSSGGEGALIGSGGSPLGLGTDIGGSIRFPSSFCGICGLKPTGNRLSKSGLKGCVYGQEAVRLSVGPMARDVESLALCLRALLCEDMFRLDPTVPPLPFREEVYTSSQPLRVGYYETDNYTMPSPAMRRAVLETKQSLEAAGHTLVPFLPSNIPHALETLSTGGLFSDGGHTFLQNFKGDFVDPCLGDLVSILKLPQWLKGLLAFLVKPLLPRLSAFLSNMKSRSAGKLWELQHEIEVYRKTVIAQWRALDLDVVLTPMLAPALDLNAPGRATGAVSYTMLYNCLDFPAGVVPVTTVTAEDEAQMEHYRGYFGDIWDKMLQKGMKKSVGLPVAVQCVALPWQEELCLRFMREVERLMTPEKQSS
Procedure: Assessment of FAAH inhibition utilizes human recombinant FAAH and the fluorescent substrate, Arachidonoyl-AMC. 400 nL of a test compound at decreasing concentrations was spotted into a 384-well back plate (PerkinElmer, 6007279) using a Labcyte Echo, followed by addition of 10 μl of FAAH enzyme (Cayman 10010183) in assay buffer (50 mM Tris, pH 9.0, 1 mM EDTA, i.e. ethylenediaminetetraacetic acid). After a 30 minute incubation at room temperature, 10 μL of Arachidonyl-AMCA was added in assay buffer with 16% DMSO. […] The reaction was allowed to progress for 60 minutes, after which the plate was read on a Molecular Devices FlexStation reader at an Ex/Em of 355/460. Percent inhibitions were calculated based on controls wells containing either no compound (0% inhibition) or a control compound (e.g., an FAAH inhibitor whose activity is known or was previously reported in the literature, such as one with about 100% inhibition). IC50 values were generated based on a four parameter fit model using ABASE software from IDBS.

[1] = Dog intravenous pharmacokinetic study; format: in vivo, Male beagle dogs; conditions: male, beagle, IV dose of 1 mg/kg, plasma, read-out: Dog t1/2 (converted)
Procedure: The pharmacokinetic studies in dog were conducted at Pfizer Global Research and Development (Groton, Conn.). All in vivo studies were conducted in accordance with regulations and established guidelines using protocols reviewed and approved by the Pfizer Worldwide Research and Development (WRD, or other) Institutional Animal Care and Use Committee.
Male beagle dogs were fasted overnight with water provided ad libitium. The dogs were fed at approximately 2-4 h post-dose. The dogs (n=2) were administered an IV bolus via the cephalic vein. Compounds of Examples 1-3 were tested along with the following four comparative compounds.
All test compounds were administered an IV dose of 1 mg/kg of the specified compound which was delivered in a dose volume of 0.5 mL/kg. The dose solution was formulated in 10% PEG400/90% of 23% (w/v) HPBCD in de-ionized water for the following test compounds: Example 1, Example 2, and Example 3; in 20% SBECD (sulfobutyl either β-cyclodextrin) for Comparative-Compound 3; in 23% (w/v) HPBCD (hydroxypropyl β-cyclodextrin) in water for Comparative Compound 2; in 12.5.% SBECD in water with 0.25% 0.1N HCl to pH 5 for Comparative Compound 1. Serial blood samples were collected from each dog via the jugular vein prior to dose administration and at the following time points post-dose: 0.083, 0.25, 0.5, 1, 2, 4, 7, and 24 h for all compounds with an additional time point of 0.016 h collected for Comparative Compound 1 only. Blood samples were collected into tubes containing EDTA and placed on wet ice. Following centrifugation to afford plasma, the samples were transferred to polypropylene tubes and stored frozen at −20° C. to −80° C. until analysis.
All plasma samples were quantified via liquid chromatography/tandem mass spectrometry (LC/MS-MS) using multiple reaction monitoring with non-validated methods. The plasma standard curves were generated with species specific plasma. Pharmacokinetic parameters were determined by non-compartmental analysis using Watson LIMS software version 7.4 (Thermo Fisher Scientific, Waltham, Mass.). The area under the concentration versus time curve (AUC) was calculated from the first time point to the last time point with measurable drug concentration using a linear trapezoidal rule. The area under the concentration versus time curve from the first time point to time infinity (AUC(0-inf)) was calculated by extrapolation from the time point where the last measurable concentration occurred to time infinity by dividing the observed concentration at the last time point by the elimination rate constant determined using linear regression of plasma concentration versus time data. The plasma clearance (CLp) was calculated by the equation CLp=dose/AUC(0-inf). The elimination half-life (t½) was calculated using the following equation t1/2=ln 2/k; k is equal to the rate constant of elimination calculated by the least squares of the log transformed data.

| Structure (SMILES) | IC50 (human recombinant FAAH) | half-life [1] |
| --- | --- | --- |
| O=C(OC(C(F)(F)F)C(F)(F)F)N1CCC2(CC1)C[C@@H](NS(=O)(=O)CC1CC1)CO2 [Example 1, 1,1,1,3,3,3-Hexafluoropropan-2-yl (3R)-3-{[(cyclopropylmethyl)sulfonyl]amino}-1-oxa-8-azaspiro[4.5]decane-8-carboxylate] | > 30 µM | 16.9 h |
| O=C(OC(C(F)(F)F)C(F)(F)F)N1CCC2(CCC(NS(=O)(=O)CC3CC3)CO2)CC1 (stereo not drawn) [Example 3, 1,1,1,3,3,3-Hexafluoropropan-2-yl 3-{[(cyclopropylmethyl)sulfonyl]amino}-1-oxa-9-azaspiro[5.5]undecane-9-carboxylate] | > 30 µM | 26.3 h |
| O=C(OC(C(F)(F)F)C(F)(F)F)N1CCC2(CC1)C[C@@H](NS(=O)(=O)C1CC1)CO2 [Example 2, 1,1,1,3,3,3-Hexafluoropropan-2-yl (3R)-3-[(cyclopropylsulfonyl)amino]-1-oxa-8-azaspiro[4.5]decane-8-carboxylate] | > 30 µM | 40.7 h |
